Assay results published in patent publication US20200138772A1, “STABILIZED FORMULATIONS OF CANNABINOID COMPOSITIONS” (priority 2018, published 2020).
Where two headings read alike, the source gives them in different places.

Legend:
[1] = Randomized, double blind, parallel bioavailability study (plasma CBD, THC and metabolites by LCMS); settings: human, oral
Description: Dosage was standardized to 10 mg of THC. […] Secondary outcome was a subjective evaluation of drug effects assessed using modified Drug Effects Questionnaire (DEQ-5) for the control product and the experimental product. Relevant experimental descriptions of several study aspects are detailed below.
Administration: A pre-dose plasma (via IV catheter) and a urine sample is collected from the participant before the administration of the emulsions/formulations. […] The bowl in which the product is mixed is rinsed with 100 ml water and the participant consumes the complete amount. After the product mixture is consumed, the participant is provided with an 8 oz glass of water that is then consumed in its entirety within 1-2 minutes.
The samples are also analyzed for HbAlc, CBC, electrolytes (Na, K, Cl, Ca), creatinine, estimated glomerular filtration rate (eGFR), aspartate aminotransferase (AST), alanine aminotransferase (ALT), and bilirubin. Urine samples are also obtained at the following time ranges: 1-4 hrs, 4-8 hrs and 8-12 hrs.
Plasma and urine samples are collected at KGK Science.

[2] = cited from earlier work; for time to achieve peak plasma concentration (tmax): different doses; for half-life / systemic bioavailability: humans

C=C(C)[C@@H]1CCC(C)=C[C@H]1c1c(O)cc(CCCCC)cc1O [CBD, (−)-Cannabidiol (CBD)]
Tmax [1]: 0.167 to 1.42 h | time to achieve peak plasma concentration (tmax) [2]: 1.5 to 4 h | half-life ([2]; intravenous injection): 18 to 33 h | half-life ([2]; oral administration): 48 to 120 h | half-life ([2]; smoking): 27 to 35 h

CCCCCc1cc(O)c2c(c1)OC(C)(C)[C@@H]1CCC(C)=C[C@@H]21 [Δ^9-THC, Δ^9-Tetrahydrocannabinol (Δ^9-THC)]
Tmax [1]: 0.167 to 1.5 h | time to achieve peak plasma concentration (tmax) [2]: 1 to 2 h | systemic bioavailability ([2]; oral): 4-12% | maximal plasma concentrations observed as late as ([2]; orally taken, in some cases): ≤ 6 h | systemic bioavailability ([2]; smoked): 10-27%
